According to patent US6462205B1, “Method of preparing benzofurandione oxime derivatives” (Bayer Aktiengesellscahft, priority 1999, dated 2002):
Read-outs that look alike come from different tables or passages of the source.

Assay: log p of the isomers of 3-methoximino-2-oxo-2,3-dihydrobenzofuran
Assay type: physicochemical
Settings: product of Example 5, value per isomer

logP (read-out: log p) | logP | Structure (SMILES)
2.2 | – | CON=C1C(=O)Oc2ccccc21 (single isomer, unassigned; isomer 3) [E isomer, 3-Methoximino-2-oxo-2,3-dihydrobenzofuran]
– | 2.14 | CON=C1C(=O)Oc2ccccc21 (single isomer, unassigned; isomer 3) [Z isomer, 3-Methoximino-2-oxo-2,3-dihydrobenzofuran]
